How the values were obtained:
Type in all cases: cell-based, human
PC3 cells = test: Flow cytometric cell cycle analysis, PC3; conditions: 3 days
Procedure: FIG. 4A-4B. Mahanine arrests prostate cancer cells at G0/G1 phase of cell cycle. To determine if down-regulation of cyclin D1 by mahanine treatments affect cell cycle, PC3 4(A) and LNCaP 4(B) cells were treated with 0, 1 and 2 μg/ml mahanine for 3 days. After treatment, flow cytometric analyses were performed. The percentage of cells in the G0/G1, S and G2/M-phase of the cell cycle were shown on right. FACS analysis of PC3 and LNCaP prostate cancer cells with vehicle or 2 μg/ml mahanine are shown in the left panel. Values are the mean from two independent experiments in duplicates.
Since cyclin D1 regulates cell cycle progression at the G0/G1 phase, Aplicants examined the cell cycle profile of PC3 and LNCaP cells in the presence of various concentrations of mahanine.

cyclin D1 protein = test: Western blot of cyclin D1 protein levels; conditions: 3 days
Procedure: FIGS. 3A-3C. Mahanine down-regulates cyclin D1 protein in prostate cancer cells. FIG. 3A and FIG. 3B: Western blots showing cyclin D1 protein levels in PC3 (A) and LNCaP (B) cells treated with 0, 1, 2 and 3 μg/ml mahanine for 3 days. Protein lysates (50 μg) from PC3 and LNCaP cells were resolved on 12% SDS-PAGE, and immunoblots were probed with antibodies to cyclin D1. All immunoblots were re-probed with β-actin antibodies to ensure equal loading. Representative photographs from an experiment that was repeated thrice. Quantitative analyses of relative levels of cyclin D1 proteins are shown on the right panels. […] FIG. 3C: PC3 cells were plated on chamber slides and treated with or without 2 μg/ml mahanine for 2 days. Cells were then fixed in methanol, incubated with cyclin D1 antibody overnight, Alexi Fluor-conjugated secondary antibodies for 1 hour and counter stained with propidium iodide (PI). Slides were then mounted and examined using a fluorescence microscope. Photographs were taken at the same magnification (×20) and then transported to Photoshop. Representative photographs from an experiment that was repeated twice.
Western blots analysis: Protein lysates were prepared from PC3 and LNCaP cells that were treated with or without mahanine. […] Band intensities were quantified by utilizing ImageJ software (NIH, Bethesda, Md.).

RASSF1A = test: RT-PCR of RASSF1A expression in cancer cells
Procedure: FIGS. 1A-1D. Mahanine induces RASSF1A in prostate and other cancer cells. FIG. 1A: Microarray analyses of PC3 cells treated with ([…] (+) or vehicle (−) for 2 days, RNA was extracted and microarray analysis was performed. FIG. 1B: RT-PCR data showing the expression of RASSF1A and GAPDH in untreated normal prostate epithelial cells (PrEC) and human prostate cancer cells (PC3). FIG. 1C: PC3 (left panel) and LNCaP (right panel) cells were treated with 0, 1, 2 and 3 μg/ml mahanine for 3 days. RNA was extracted, and RT-PCR assays were performed to detect RASSF1A and GAPDH expression. Representative photograph from an experiment that was repeated thrice. Quantitative estimations of relative levels of RASSF1A mRNAs (lower panels) were determined by densitometric measurements of RT-PCR gels from three independent experiments after normalization with GAPDH. […]
Genes of interest were amplified using 500 ng of total RNA reverse-transcribed to cDNA using a Superscript II kit (Invitrogen) with random hexamers. […] After amplification, PCR products were separated on 1.5% agarose gels and visualized by ethidium bromide fluorescence using the Fuji LAS-1000 Imager. […] Band intensities were quantified by using ImageJ software (NIH, Bethesda, Md.).

CC(C)=CCC[C@@]1(C)C=Cc2c(c(C)cc3c2[nH]c2cc(O)ccc23)O1 [mahanine]
cells in S-phase (PC3 cells; 1 μg/ml, vehicle 7.5%): decreased the S-phase
cells in G0/G1-phase (PC3 cells; 1 μg/ml, vehicle 26%): increased the G0/G1-phase
cells in G0/G1-phase (PC3 cells; 2 μg/ml): further increased
cells in S-phase (PC3 cells; 2 μg/ml): completely abolished
cyclin D1 protein levels decreased to (cyclin D1 protein; PC3 cells, 1 μg/ml, p<0.01): about 40%
cyclin D1 protein (Western blot) (cyclin D1 protein; PC3 cells, 1, 2 and 3 μg/ml): dose-dependent decrease
induction of RASSF1A expression (RT-PCR) (RASSF1A; A431, A549, ASPC-1, HT-29, MCF7 and SKOV-3 cells, 2 and 3 μg/ml, 2 days): induced RASSF1A expression
induction of RASSF1A gene expression (RT-PCR) (RASSF1A; PC3 cells, 1, 2 and 3 μg/ml, 3 days, dose-dependent): 20-80 folds

Source: patent publication US20100130579A1, “CANCER THERAPY” (Georgetown University, priority 2006, published 2010)
